# Reference: US10294202B2, “Pyrrolidinones as herbicides” (FMC Corporation, priority 2013, dated 2019)
# Legend:
# [1] = tested on: barnyardgrass; experiment: Test A pre-/postemergence herbicide test; type: in vivo, Echinochloa crus-galli
# Outline: (§1)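 Visual injury ratings, 0 = no effect, 100 = complete control, taken ~10 days after treatment against untreated greenhouse controls. Preemergence: directed soil spray onto seeded loam/sand pots. Postemergence: spray onto plants at one- to two-leaf stage, 2–10 cm tall.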
# [2] = tested on: wheat; experiment: Test A pre-/postemergence herbicide test; type: in vivo, Triticum aestivum
# Outline: as §1
# [3] = tested on: velvetleaf; experiment: Test A pre-/postemergence herbicide test; type: in vivo, Abutilon theophrasti
# Outline: as §1
# [4] = tested on: crabgrass, large; experiment: Test A pre-/postemergence herbicide test; type: in vivo, Digitaria sanguinalis
# Outline: as §1
# [5] = tested on: ducksalad; experiment: Test B flooded paddy test; type: in vivo, Heteranthera limosa; conditions: Flood, scale of 0 to 100 where 0 is no effect and 100 is complete control
# Method: (§2) Plant species in the flooded paddy test selected from rice (Oryza sativa), sedge, umbrella (small-flower umbrella sedge, Cyperus difformis), ducksalad (Heteranthera limosa), and barnyardgrass (Echinochloa crus-galli) were grown to the 2-leaf stage for testing. At time of treatment, test pots were flooded to 3 cm above the soil surface, treated by application of test compounds directly to the paddy water, and then maintained at that water depth for the duration of the test. Treated plants and controls were maintained in a greenhouse for 13 to 15 days, after which time all species were compared to controls and visually evaluated. Plant response ratings, summarized in Table B, are based on a scale of 0 to 100 where 0 is no effect and 100 is complete control. A dash (-) response means no test result.
# [6] = tested on: giant foxtail; experiment: Test A pre-/postemergence herbicide test; type: in vivo, Setaria faberii
# Outline: as §1
# [7] = tested on: barnyardgrass; experiment: Test B flooded paddy test; type: in vivo, Echinochloa crus-galli; conditions: Flood, scale of 0 to 100 where 0 is no effect and 100 is complete control
# Method: as §2
# [8] = tested on: pigweed; experiment: Test A pre-/postemergence herbicide test; type: in vivo, Amaranthus retroflexus
# Outline: as §1
# [9] = tested on: rice; experiment: Test B flooded paddy test; type: in vivo, Oryza sativa; conditions: Flood, scale of 0 to 100 where 0 is no effect and 100 is complete control
# Method: as §2
# [10] = tested on: corn; experiment: Test A pre-/postemergence herbicide test; type: in vivo, Zea mays
# Outline: as §1
# [11] = tested on: morningglory; experiment: Test A pre-/postemergence herbicide test; type: in vivo, Ipomoea spp.
# Outline: as §1
# [12] = tested on: sedge, umbrella; experiment: Test B flooded paddy test; type: in vivo, Cyperus difformis; conditions: Flood, scale of 0 to 100 where 0 is no effect and 100 is complete control
# Method: as §2
# [13] = tested on: ragweed; experiment: Test A pre-/postemergence herbicide test; type: in vivo, Ambrosia elatior; conditions: for Plant response rating, Ragweed: 0 to 100 scale
# Outline: as §1
# [14] = tested on: kochia; experiment: Test A pre-/postemergence herbicide test; type: in vivo, Kochia scoparia; conditions: for Plant response rating, Kochia: 0 to 100 scale
# Outline: as §1
# [15] = tested on: galium; experiment: Test A postemergence herbicide test; type: in vivo, Galium aparine
# Outline: (§3)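 Young potted plants in a loam–sand mix, one- to two-leaf stage and 2–10 cm tall, receive the test chemical postemergence and stay in a greenhouse for approximately 10 days. Injury is then judged by eye against untreated plants, scored 0 (none) to 100 (complete control).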
# [16] = tested on: blackgrass; experiment: Test A postemergence herbicide test; type: in vivo, Alopecurus myosuroides
# Outline: as §3
# [17] = tested on: ryegrass, Italian; experiment: Test A pre-/postemergence herbicide test; type: in vivo, Lolium multiflorum; conditions: for Plant response rating, Ryegrass, Italian: 0 to 100 scale
# Outline: as §1
# [18] = Postemergence, 1000 g ai/ha, 0 to 100 scale (0 no effect, 100 complete control)
# [19] = Preemergence, 1000 g ai/ha, visual rating on 0 to 100 scale (0 no effect, 100 complete control), approx. 10 days
# [20] = Postemergence, 125 g ai/ha, 0 to 100 scale, 0 no effect, 100 complete control
# [21] = Postemergence, 500 g ai/ha, 0 to 100 scale (0 no effect, 100 complete control)
# [22] = Preemergence, 125 g ai/ha, visual rating on 0 to 100 scale (0 no effect, 100 complete control)
# [23] = preemergence, 500 g ai/ha, 0 to 100 scale (0 no effect, 100 complete control)
# [24] = preemergence, 500 g ai/ha, 0 to 100 scale
# [25] = 125 g ai/ha, visual rating, 0 to 100 scale, 0 no effect, 100 complete control, approximately 10 days, preemergence
# [26] = Postemergence, 125 g ai/ha, 0 to 100 scale, 0 is no effect, 100 is complete control
# [27] = 125 g ai/ha, visual rating, 0 no effect, 100 complete control, approximately 10 days, preemergence
# [28] = Postemergence, 125 g ai/ha, 0 is no effect, 100 is complete control
# [29] = preemergence, 500 g ai/ha, 0 is no effect and 100 is complete control
# [30] = 125 g ai/ha, 0 to 100 scale, 0 is no effect, 100 is complete control
smiles,measurement,setting,value
Cc1c(Cl)cccc1NC(=O)C1C(=O)NCC1c1ccc(F)c(F)c1 (racemic) [Compound 100],"Plant response rating, Barnyardgrass",[1]; [18],80
same,"Plant response rating, Barnyardgrass",[1]; [19],90
same,"Plant response rating, Wheat",[2]; [18],30
same,"Plant response rating, Wheat",[2]; [19],20
same,"Plant response rating, Velvetleaf",[3]; [18],0
same,"Plant response rating, Velvetleaf",[3]; [19],0
same,"Plant response rating, Crabgrass, Large",[4]; [18],90
same,"Plant response rating, Crabgrass, Large",[4]; [19],90
same,"Plant response rating, Ducksalad",[5]; 1000 g ai/ha,75
same,"Plant response rating, Foxtail, Giant",[6]; [18],80
same,"Plant response rating, Foxtail, Giant",[6]; [19],90
same,"Plant response rating, Barnyardgrass",[7]; 1000 g ai/ha,25
same,"Plant response rating, Pigweed",[8]; [18],0
same,"Plant response rating, Pigweed",[8]; [19],0
same,"Plant response rating, Rice",[9]; 1000 g ai/ha,0
same,"Plant response rating, Corn",[10]; [18],40
same,"Plant response rating, Corn",[10]; [19],20
same,"Plant response rating, Morningglory",[11]; [18],0
same,"Plant response rating, Morningglory",[11]; [19],0
same,"Plant response rating, Sedge, Umbrella",[12]; 1000 g ai/ha,0
O=C1NCC(c2ccc(F)c(F)c2)C1C(=O)Nc1ccccc1OC(F)(F)F (stereo not shown) [Compound 54],"Plant response rating, Barnyardgrass",[1]; [20],0
same,"Plant response rating, Barnyardgrass",[1]; [21],0
same,Barnyardgrass plant response rating,[1]; [22],0
same,"Plant response rating, Barnyardgrass",[1]; [23],20
same,"Plant response rating, Wheat",[2]; [20],0
same,"Plant response rating, Wheat",[2]; [21],0
same,Wheat plant response rating,[2]; [22],0
same,"Plant response rating, Wheat",[2]; [24],20
same,"Plant response rating, Velvetleaf",[3]; [20],0
same,"Plant response rating, Velvetleaf",[3]; [21],0
same,Velvetleaf plant response rating,[3]; [22],0
same,"Plant response rating, Velvetleaf",[3]; [24],0
same,"Plant response rating, Crabgrass, Large",[4]; [20],70
same,"Plant response rating, Crabgrass, Large",[4]; [21],80
same,"Crabgrass, Large plant response rating",[4]; [22],90
same,"Plant response rating, Crabgrass, Large",[4]; [24],90
same,"Plant response rating, Ducksalad",[5]; 250 g ai/ha,70
same,"Plant response rating, Foxtail, Giant",[6]; [20],60
same,"Plant response rating, Foxtail, Giant",[6]; [21],70
same,"Foxtail, Giant plant response rating",[6]; [22],90
same,"Plant response rating, Foxtail, Giant",[6]; [24],90
same,"Plant response rating, Barnyardgrass",[7]; 250 g ai/ha,0
same,"Plant response rating, Pigweed",[8]; [20],0
same,"Plant response rating, Pigweed",[8]; [21],0
same,Pigweed plant response rating,[8]; [22],0
same,"Plant response rating, Pigweed",[8]; [24],0
same,"Plant response rating, Rice",[9]; 250 g ai/ha,20
same,"Plant response rating, Corn",[10]; [20],0
same,"Plant response rating, Corn",[10]; [21],0
same,Corn plant response rating,[10]; [22],0
same,"Plant response rating, Corn",[10]; [24],0
same,"Plant response rating, Morningglory",[11]; [20],0
same,"Plant response rating, Morningglory",[11]; [21],0
same,Morningglory plant response rating,[11]; [22],0
same,"Plant response rating, Morningglory",[11]; [24],0
same,"Plant response rating, Sedge, Umbrella",[12]; 250 g ai/ha,0
O=C1NCC(c2cc(F)cc(F)c2)C1C(=O)Nc1ccc(F)cc1F (racemic) [Compound 156],"Plant response rating, Barnyardgrass",[1]; [25],90
same,"Plant response rating, Barnyardgrass",[1]; [26],80
same,"Barnyardgrass plant response rating (0 to 100 scale, 0 is no effect, 100 is complete control)","[1]; Postemergence, 500 g ai/ha",80
same,"Plant response rating, Barnyardgrass",[1]; [23],90
same,"Plant response rating, Wheat",[2]; [26],0
same,"Wheat plant response rating (0 to 100 scale, 0 is no effect, 100 is complete control)","[2]; Postemergence, 500 g ai/ha",40
same,"Plant response rating, Ragweed",[13]; [27],0
same,"Plant response rating, Ragweed",[13]; [28],0
same,"Ragweed plant response rating (0 to 100 scale, 0 is no effect, 100 is complete control)","[13]; Postemergence, 500 g ai/ha",30
same,"Plant response rating, Ragweed",[13]; [29],0
same,"Plant response rating, Foxtail, Giant",[6]; [25],90
same,"Plant response rating, Foxtail, Giant",[6]; [26],80
same,"Foxtail, Giant plant response rating (0 to 100 scale, 0 is no effect, 100 is complete control)","[6]; Postemergence, 500 g ai/ha",80
same,"Plant response rating, Foxtail, Giant",[6]; [24],90
same,"Plant response rating, Pigweed",[8]; [25],0
same,"Plant response rating, Pigweed",[8]; [26],0
same,"Pigweed plant response rating (0 to 100 scale, 0 is no effect, 100 is complete control)","[8]; Postemergence, 500 g ai/ha",20
same,"Plant response rating, Pigweed","[8]; preemergence, 500 g ai/ha, 0 to 100 scale, 0 is no effect and 100 is complete control",0
same,"Plant response rating, Kochia",[14]; [27],20
same,"Plant response rating, Kochia",[14]; [28],0
same,"Kochia plant response rating (0 to 100 scale, 0 is no effect, 100 is complete control)","[14]; Postemergence, 500 g ai/ha",20
same,"Plant response rating, Kochia",[14]; [29],40
same,"Plant response rating, Galium",[15]; [30],20
same,"Galium plant response rating (0 to 100 scale, 0 is no effect, 100 is complete control)",[15]; 500 g ai/ha,30
same,"Plant response rating, Corn",[10]; [26],20
same,"Corn plant response rating (0 to 100 scale, 0 is no effect, 100 is complete control)","[10]; Postemergence, 500 g ai/ha",30
same,"Plant response rating, Blackgrass",[16]; [30],0
same,"Blackgrass plant response rating (0 to 100 scale, 0 is no effect, 100 is complete control)",[16]; 500 g ai/ha,20
same,"Plant response rating, Ryegrass, Italian",[17]; [27],0
same,"Plant response rating, Ryegrass, Italian",[17]; [28],20
same,"Ryegrass, Italian plant response rating (0 to 100 scale, 0 is no effect, 100 is complete control)","[17]; Postemergence, 500 g ai/ha",30
same,"Plant response rating, Ryegrass, Italian",[17]; [29],30
